Earlier results on 2 compounds are cited in patent US9950112B2 (priority 2010, dated 2018).

The conditions of series [1]: propofol concentration, human surgical patients, general anesthesia.
The conditions of series [2]: morphine during early resuscitation following serious injuries; reduced from 76%.

For the compound `CC(C)c1cccc(C(C)C)c1O` [propofol], in series [1], the EC50 for awakening is 1.07 ± 0.13 µg/mL and the EC50 for orientation is 0.95 ± 0.19 µg/mL.

In the case of `CN1CC[C@]23c4c5ccc(O)c4O[C@H]2[C@@H](O)C=C[C@H]3[C@H]1C5` [morphine], the “incidence of post-traumatic stress disorder (PTSD)” value in series [2] was 61%.
